Results: publication PMC4445981, “The glutamate transport inhibitor DL-Threo-β-Benzyloxyaspartic acid (DL-TBOA) differentially affects SN38- and oxaliplatin-induced death of drug-resistant colorectal cancer cells” (BMC Cancer, 2015)

Experiments:
Type in all cases: cell-based, human
[1] = test system: cellular reduced glutathione (GSH); assay: Cellular GSH level; details: 24 h
Description: Fig. 4 Effect of glutamate transporter inhibition on cellular GSH levels. a Basal intracellular GSH levels were measured as described in Materials and Methods, and normalized to total protein in the samples. b-c Normalized basal GSH levels under control conditions, in HCT116 and LoVo parental and resistant cells after 24 h of treatment with 0.8 μM SN38 or 20 μM oxaliplatin, in absence or presence of DL-TBOA (350 μM) as shown. * p < 0.05 vs untreated control group (n = 5). One-way ANOVA followed by Dunnett post-test
Cells were seeded in 24-well plates (10^4 cells per well), treated the next day with chemotherapy and/or DL-TBOA and incubated for 24 h. Medium was removed and cells were washed twice with ice-cold PBS, which was removed and 500 μl ice-cold 1 % Sulfosalicylic acid was added per well. Cells were incubated on ice for at least 10 min. After centrifugation (1 min, 15,000 g), 10 μl lysate was used to determine total GSx content. To measure GSSG content, 130 μl sample was mixed with 55 μl 0.2 M Tris (pH 9) and 5 μl 2-Vinylpyridine. Tubes were vortexed carefully and incubated for at least 1 h at room temperature. 10 μl of this mix was mixed first with 90 μl of water in a 96-well plate and then with a reaction mix (0.1 M sodium phosphate buffer pH 7.5 containing 1 mM EDTA, 10 mM NADPH, 10 mM DTNB and 0.05 μl Glutathione reductase, 2U/μl). Measurements were taken every 30 s for 10 min in an ELISA plate reader (Thermo Scientific MultiScan FC) at 405 nm absorbance. GSH values were obtained by subtraction of GSSG values from GSx values.

p53 = p53 protein level by Western blotting; details: 24 h; for p53 protein level: 0.8 μM SN38 or 20 μM oxaliplatin
Description: Fig. 5 Effects of DL-TBOA on cell death and survival parameters after chemotherapy treatment. Parental and drug-resistant HCT116 (a) and LoVo (b) cell lines were exposed to SN38 (0.8 μM) or oxaliplatin (20 μM), alone or in combination with 350 μM DL-TBOA as indicated, for 24 h. Equal amounts of protein per lane were separated by SDS-PAGE and the protein level of p53 was determined by Western blotting. Top: Representative Western blots, with p150 as loading control. Bottom: Densitometric quantifications based on 3 independent experiments per condition. Data are means with S.E.M. error bars of 3 independent experiments. *) p < 0.05, **) p < 0.01, ***) p < 0.001,****) p < 0.0001 compared to the control group without drug or TBOA treatment; Two-way ANOVA with Tukey post-test
Cells were grown to a confluence of 60-80 % and treated with chemotherapy, siRNA- or plasmid transfection as indicated. Cells were washed once in PBS, lysed in lysis buffer (1 % SDS, 0.1 M Tris pH 7.5, and 1 mM Na3VO4), sonicated, and protein content determined (DC assay, BioRad). Lysates were mixed 2:1with NuPage LDS sample buffer (Invitrogen). SDS-PAGE was carried out in NOVEX chambers with NuPAGE 10 % Bis-Tris gels under reducing and denaturing conditions, using BenchMark protein ladder (Invitrogen), and 15 μg protein per lane. Proteins were transferred to PVDF membranes, which were Ponceau S stained, blocked for 1 h at 37 °C in 5 % nonfat dry milk in TBST (0.01 M Tris/HCl, 0.15 M NaCl, 0.1 % Tween 20, pH 7.4), incubated overnight at 4 °C with primary antibodies diluted in blocking buffer, washed in TBST, incubated with secondary antibodies for 1 h, washed in TBST, and developed using BCIP/NBT (KPL). Bands were scanned and quantified using UN-SCAN-IT (Silk Scientific).

[2] = test system: parental and drug-resistant HCT116 and LoVo cell lines; assay: MTT viability assay, HCT116 and LoVo cell lines
Description: Fig. 2 DL-TBOA augments SN38-induced death in SN38-resistant cells, but protects oxaliplatin-resistant cells from oxaliplatin-induced death. Parental and drug-resistant HCT116 and LoVo cell lines seeded in 96-well dishes were exposed to SN38 (0.1 or 0.8 μM) or oxaliplatin (0.8 or 20 μM), alone or in combination with 70 or 350 μM DL-TBOA as indicated, for 48 h. Viability was assessed by MTT assay. a-b Parental HCT116 cells, (c) SN38 resistant HCT116 cells, (d) Oxaliplatin-resistant HCT116 cells, (e-f) Parental LoVo cells, (g) SN38 resistant LoVo cells, (h) Oxaliplatin-resistant LoVo cells. Data are means with S.E.M. error bars of 3 independent experiments. *) p < 0.05, **) p < 0.01, ***) p < 0.001 compared to the control group without drug or TBOA treatment; #) p < 0.05 compared to controls without TBOA treatment. One-way ANOVA followed by Dunnett post-test
Cells were seeded at appropriate density (LoVo 10,000, and HCT116 5000 cells /100 μl) in growth medium in 96-well plates. Next day, cells were treated with inhibitors and/or chemotherapy in a total volume of 200 μl in growth medium and incubated for 48 h at 37 °C, 5 % CO2. The medium was replaced with 100 μl of 0.5 mg/ml 3-(4,5-dimethylthiazol-2-yl)-2,5-diphenyltetrazolium bromide (MTT) in growth medium. The reaction was stopped 1.5-2.5 h later by addition of 100 μl 20 % SDS in 0.02 M HCl, and incubation overnight to allow complete lysis of cells and formazan crystals. Absorbance was measured in an ELISA plate reader (Thermo Scientific MultiScan FC) at 550 nm. Data were background subtracted and % viability relative to controls calculated.

Compound | effect on cellular GSH levels ([1]; 350 μM DL-TBOA, HCT116 and LoVo parental and resistant cells) | effect on chemotherapy-induced p53 induction (p53; 350 μM DL-TBOA concomitant to SN38 or oxaliplatin, parental and drug-resistant HCT116 and LoVo) | effect on SN38-induced loss of viability ([2]; SN38-resistant HCT116 and LoVo cells, concomitant DL-TBOA 70 or 350 μM, 48 h) | effect on oxaliplatin-induced loss of viability ([2]; both parental cell lines, DL-TBOA 70 or 350 μM concomitantly with oxaliplatin, 48 h) | effect on viability of untreated cells ([2]; no chemotherapeutic, DL-TBOA 70 or 350 μM, 48 h, all cell lines (Fig. 2a-h)) | effect on oxaliplatin-induced loss of viability ([2]; oxaliplatin-resistant HCT116 and LoVo cells, DL-TBOA 70 or 350 μM, 48 h) | effect on SN38-induced loss of viability ([2]; parental cell lines, DL-TBOA 70 or 350 μM concomitantly with SN38, 48 h) | effect on cellular GSH levels ([1]; parental HCT116 cells, 0.8 μM SN38 or 20 μM oxaliplatin) | p53 protein level (p53; SN38-resistant HCT116 cells) | p53 protein level (p53; parental HCT116 cells) | viable cells remaining ([2]; parental HCT116 and LoVo, 48 h, 20 μM oxaliplatin (highest dose tested))
N[C@H](C(=O)O)[C@H](OCc1ccccc1)C(=O)O (racemic) [TBOA, DL-Threo-β-Benzyloxyaspartic acid] | no detectable effect | apparent decrease in p53 induction | concentration-dependently enhanced SN38-induced loss of viability | counteracted the effect of oxaliplatin on viability | small decrease in viability | reversed oxaliplatin-induced loss of viability | slightly exacerbated the SN38-induced loss of viability |  |  |  | 
O=C(O)C(=O)O.[NH-][C@@H]1CCCC[C@H]1[NH-].[Pt+2] [oxaliplatin] |  |  |  |  |  |  |  | slightly increased GSH levels | retained | markedly induced | about 20%
